Measurements reported in US20250129334A1, “LINEAGE SPECIFICATION DURING STEM CELL TRANSITION” (Amniotics AB, priority 2021, published 2025).

Columns and labels:
iPSC-CD34+ = test: NK cell cytotoxic degranulation (CD107) with or without K562 co-culture; assay type: cell-based, human; details: absence of K562; DCA 10 mM, CP 2.5 μM, cholesterol 0.5x
Source text: NK cell anti-tumour activity can occur via cytotoxic degranulation. CD107 is a marker that is present in the cytotoxic vesicles of NK cells, and so is not expressed on the cell surface of inactivated NK cells. However, upon NK cell activation and degranulation, the CD107 target becomes detectable on the cell surface. Therefore, the level of CD107 detected on NK cells correlates with cytotoxic degranulation. In this assay, several exemplary metabolic regulators were used to assess cytotoxic degranulation in a co-culture assay with K562 cells (an exemplary cancer cell model). As a negative control, iPSC-CD34^+ untreated with a metabolic regulator were used, in which a basal level of 3.27% of degranulated NK cells (CD3^−CD56^+CD16^+CD107^+ cells) were observed (FIG. 16A, top panel).

HSC-like cells = test: HSC-like cell subculture with metabolic regulators, flow cytometry; assay type: cell-based, human; details: day 3, UK5099 10 μM
Source text: The RB9-CB1 human iPSC line (Woods, N.-B. et al. Brief report: efficient generation of hematopoietic precursors and progenitors from human pluripotent stem cell lines. Stem Cells 29, 1158-1164 (2011)) was co-cultured with mouse embryonic fibroblasts (MEFs, Millipore), passaged every six days and processed to form embryoid bodies (EBs) as described previously (Guibentif, C. et al. Single-Cell Analysis Identifies Distinct Stages of Human Endothelial to-Hematopoietic Transition. Cell Reports 19, 10-19 (2017)). The differentiation protocol used in this study was previously described (Ditadi, A. & Sturgeon, C. M. Directed differentiation of definitive hemogenic endothelium and hematopoietic progenitors from human pluripotent stem cells. Methods 101, 65-72 (2016)), however, small modifications were made to induce both primitive and definitive hematopoiesis, as indicated below and in FIG. 6, a. Newly-formed EBs were first kept in SFD medium supplemented with 1 ng/ml Activin A (on days 0-2) and 3 μM CHIR99021 (on day 2 only). At day 3, media was switched to “Day 3-SP34” medium supplemented with 1 ng/ml Activin A (on day 3 only) and 3 μM CHIR99021 (on day 3 only) until day 6. On day 6, media was replaced by “Day 6-SP34” medium, until day 8. […]

Row | Structure (SMILES) | degranulated NK cells (CD3-CD56+CD16+CD107+ cells) (iPSC-CD34+) | increase in degranulated NK cells vs untreated control (iPSC-CD34+) | CD43+GPA+ cell output (HSC-like cells)
1 | O=C(O)C(Cl)Cl [DCA, dichloroacetate] | 13.8 % of the population | more than 4 fold | 
2 | N#CC(=Cc1cn(-c2ccccc2)c2ccccc12)C(=O)O [UK5099, 2-Cyano-3-(1-phenyl-1H-indol-3-yl)-2-propenoic acid] |  |  | absence of bias
